In ChEMBL document CHEMBL1201862, “PubChem BioAssay data set” (2004):
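Results reflect a 48-hour exposure of cells in 96-well plates to compound at five concentrations. GI50 is the concentration that inhibits growth by half.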 Calls of active or inactive are those of the source. Cut-off read from the data, not from the text of the source: active = GI50 up to about 1.1 µM and inactive = higher.

How the values were obtained:
Test in all cases: NCI anticancer screen, dose series, 48 h
ACHN = tested on: ACHN
CCRF-CEM = tested on: CCRF-CEM
COLO 205 = tested on: COLO 205
HOP-62 = tested on: HOP-62
HOP-92 = tested on: HOP-92
K562 = tested on: K562
LOX IMVI = tested on: LOX IMVI
MOLT-4 = tested on: MOLT-4
NCI-H460 = tested on: NCI-H460
OVCAR-5 = tested on: OVCAR-5
SF-539 = tested on: SF-539
SK-MEL-5 = tested on: SK-MEL-5
SK-OV-3 = tested on: SK-OV-3
SNB-19 = tested on: SNB-19
U-251 = tested on: U-251
UACC-257 = tested on: UACC-257
UO-31 = tested on: UO-31

Measured: GI50

O=[N+]([O-])c1ccc2occ3c2c1CCC3
inactive: ACHN > 100 µM | CCRF-CEM > 100 µM | COLO 205 > 100 µM | HOP-62 > 100 µM | HOP-92 35.2 µM | K562 > 100 µM | LOX IMVI > 100 µM | MOLT-4 > 100 µM | NCI-H460 > 100 µM | OVCAR-5 86.1 µM | SF-539 > 100 µM | SK-MEL-5 > 100 µM | SK-OV-3 > 100 µM | SNB-19 > 100 µM | U-251 > 100 µM | UACC-257 > 100 µM | UO-31 71.6 µM

O=C(Cc1nc2ccccc2s1)C(=O)Nc1ccccc1C(F)(F)F
inactive: ACHN > 100 µM | CCRF-CEM > 100 µM | COLO 205 > 100 µM | HOP-62 > 100 µM | HOP-92 20.4 µM | K562 > 100 µM | LOX IMVI > 100 µM | MOLT-4 > 100 µM | NCI-H460 > 100 µM | OVCAR-5 > 100 µM | SF-539 > 100 µM | SK-MEL-5 > 100 µM | SK-OV-3 > 100 µM | SNB-19 > 100 µM | U-251 > 100 µM | UACC-257 > 100 µM | UO-31 > 100 µM

O=CC1=CCCN(CCc2c[nH]c3ccccc23)C1
inactive: ACHN 70.6 µM | CCRF-CEM 23.4 µM | COLO 205 77.6 µM | HOP-62 52.6 µM | HOP-92 64.9 µM | K562 23.6 µM | LOX IMVI 6.47 µM | MOLT-4 13.2 µM | NCI-H460 54.6 µM | OVCAR-5 71.3 µM | SF-539 54 µM | SK-MEL-5 62.8 µM | SK-OV-3 86.5 µM | SNB-19 45.2 µM | U-251 52.5 µM | UACC-257 63.8 µM

C1CCN(c2nc(=[N+]3CCCCC3)ss2)CC1
inactive: ACHN > 100 µM | CCRF-CEM 43.7 µM | HOP-62 > 100 µM | HOP-92 > 100 µM | K562 90.6 µM | LOX IMVI 41.1 µM | MOLT-4 > 100 µM | NCI-H460 48.8 µM | OVCAR-5 > 100 µM | SF-539 > 100 µM | SK-MEL-5 > 100 µM | SK-OV-3 71.9 µM | SNB-19 > 100 µM | U-251 49.5 µM | UACC-257 > 100 µM | UO-31 > 100 µM

CCOC(=N)CC(=O)Nc1ccccc1
inactive: ACHN > 46.5 µM | CCRF-CEM 19.4 µM | COLO 205 > 46.5 µM | HOP-62 > 46.5 µM | HOP-92 > 10 µM | K562 22.1 µM | LOX IMVI 47.5 µM | MOLT-4 > 31.6 µM | NCI-H460 > 46.5 µM | OVCAR-5 > 100 µM | SF-539 > 46.5 µM | SK-MEL-5 > 46.5 µM | SK-OV-3 > 100 µM | SNB-19 > 100 µM | U-251 > 100 µM | UACC-257 > 46.5 µM | UO-31 > 46.5 µM

Cc1ccccc1NC(=O)CC1C(=O)Nc2ccccc2[S+]1[O-] (configuration not stated)
inactive: ACHN 95.3 µM | CCRF-CEM > 100 µM | HOP-92 52.7 µM | K562 > 100 µM | LOX IMVI > 100 µM | MOLT-4 > 100 µM | NCI-H460 > 100 µM | OVCAR-5 > 100 µM | SF-539 36.1 µM | SK-MEL-5 > 100 µM | SNB-19 > 100 µM | U-251 51.1 µM | UACC-257 > 100 µM | UO-31 > 100 µM

COc1cc(/C=C/c2cccnc2)cc(OC)c1OC
inactive: ACHN > 100 µM | CCRF-CEM > 100 µM | COLO 205 > 100 µM | HOP-62 70.6 µM | HOP-92 31.8 µM | K562 > 100 µM | LOX IMVI > 100 µM | MOLT-4 > 100 µM | NCI-H460 > 100 µM | OVCAR-5 58.9 µM | SF-539 > 100 µM | SK-MEL-5 47.5 µM | SNB-19 > 100 µM | U-251 > 100 µM | UACC-257 > 100 µM | UO-31 36.5 µM

O=c1c2ccccc2c(=O)n2n1CC=CC2
inactive: ACHN > 100 µM | CCRF-CEM > 100 µM | COLO 205 > 100 µM | HOP-92 > 100 µM | K562 > 100 µM | LOX IMVI > 100 µM | MOLT-4 > 100 µM | OVCAR-5 > 100 µM | SF-539 > 100 µM | SK-MEL-5 > 100 µM | SK-OV-3 > 100 µM | SNB-19 > 100 µM | U-251 > 100 µM | UACC-257 > 100 µM | UO-31 > 100 µM

CCOc1ccc(/N=N/c2c(-c3ccccc3)nn(C(=O)CC(=O)Nc3ccccc3Cl)c2-c2ccccc2)cc1
inactive: ACHN 33.3 µM | CCRF-CEM 25.4 µM | COLO 205 64.9 µM | HOP-62 93.8 µM | HOP-92 48.8 µM | K562 30.2 µM | LOX IMVI 42.2 µM | MOLT-4 34.1 µM | NCI-H460 46.5 µM | OVCAR-5 > 100 µM | SF-539 58.3 µM | SK-MEL-5 44.6 µM | SK-OV-3 > 100 µM | SNB-19 > 100 µM | U-251 48.9 µM | UACC-257 80.4 µM | UO-31 28.9 µM

Clc1cccc(C2SCc3nc4ccccc4n32)c1Cl (configuration not stated)
inactive: ACHN 20.8 µM | CCRF-CEM 19.1 µM | COLO 205 19.8 µM | HOP-62 17.4 µM | HOP-92 15.2 µM | K562 12.8 µM | MOLT-4 11.1 µM | NCI-H460 18.5 µM | OVCAR-5 13.9 µM | SF-539 17.2 µM | SK-MEL-5 14.1 µM | SK-OV-3 20.1 µM | SNB-19 18 µM | U-251 17.5 µM | UACC-257 15.2 µM | UO-31 13 µM

Nc1nc2c3nc(Nc4ccccc4)sc3nc(=O)n2c2sc(Nc3ccccc3)nc12
inactive: ACHN > 100 µM | CCRF-CEM > 100 µM | COLO 205 > 100 µM | HOP-62 > 100 µM | HOP-92 > 100 µM | K562 > 100 µM | MOLT-4 > 100 µM | SF-539 > 100 µM | SK-MEL-5 > 100 µM | SK-OV-3 > 100 µM | SNB-19 > 100 µM | U-251 > 100 µM | UACC-257 > 100 µM | UO-31 > 100 µM

CCOC(=O)C1C(=O)C(C(=O)OCC)C(c2ccccc2)N(C)C1c1ccccc1 (configuration not stated)
inactive: ACHN > 100 µM | CCRF-CEM > 100 µM | COLO 205 > 100 µM | HOP-62 > 100 µM | HOP-92 > 100 µM | K562 > 100 µM | LOX IMVI 33.9 µM | MOLT-4 49.5 µM | NCI-H460 > 100 µM | OVCAR-5 > 100 µM | SF-539 > 100 µM | SK-MEL-5 66.4 µM | SK-OV-3 > 100 µM | SNB-19 > 100 µM | U-251 95.9 µM | UACC-257 > 100 µM | UO-31 > 100 µM

O=C1C(=O)N(C(=O)c2ccc(Cl)c(Cl)c2)c2ccccc21
inactive: ACHN > 100 µM | CCRF-CEM > 100 µM | COLO 205 > 100 µM | K562 > 100 µM | LOX IMVI > 100 µM | MOLT-4 > 100 µM | OVCAR-5 > 100 µM | SF-539 > 100 µM | SK-MEL-5 > 100 µM | SK-OV-3 > 100 µM | SNB-19 > 100 µM | U-251 > 100 µM | UO-31 > 100 µM

NNC(=S)N/N=C(\CC1OC(=O)c2ccccc21)c1ccccc1O (configuration not stated)
inactive: ACHN 59.3 µM | CCRF-CEM 25.9 µM | COLO 205 47 µM | HOP-62 33 µM | HOP-92 70.8 µM | K562 60.5 µM | LOX IMVI 17.6 µM | MOLT-4 23 µM | NCI-H460 40.8 µM | OVCAR-5 18.2 µM | SF-539 19.5 µM | SK-MEL-5 42.3 µM | SK-OV-3 > 100 µM | SNB-19 32.4 µM | U-251 17.3 µM | UACC-257 > 100 µM | UO-31 37.7 µM

CCCCC(/C=N/NC(=N)N)CC.Cc1cc(O)c(C(C)C)cc1S(=O)(=O)O
inactive: ACHN 56.6 µM | CCRF-CEM 56.2 µM | COLO 205 18.2 µM | HOP-62 39.7 µM | K562 26.5 µM | LOX IMVI 57.1 µM | MOLT-4 36.1 µM | NCI-H460 46.6 µM | SF-539 87.5 µM | SK-OV-3 59.8 µM | SNB-19 60 µM | U-251 33.4 µM | UACC-257 41.3 µM | UO-31 59.8 µM

N=C1N(c2ccccc2)C(=O)C23CCCC2C13N1CCOCC1 (configuration not stated)
inactive: ACHN > 100 µM | CCRF-CEM > 100 µM | COLO 205 > 100 µM | HOP-62 > 100 µM | HOP-92 > 100 µM | K562 > 100 µM | MOLT-4 > 100 µM | NCI-H460 > 100 µM | OVCAR-5 > 100 µM | SF-539 > 100 µM | SK-MEL-5 > 100 µM | SK-OV-3 > 100 µM | SNB-19 > 100 µM | U-251 > 100 µM | UACC-257 > 100 µM | UO-31 > 100 µM

CC(C)(C)CC(C)(C)c1cc2c(O)c(c1)Cc1cc(C(C)(C)CC(C)(C)C)cc(c1O)Cc1cc(C(C)(C)CC(C)(C)C)cc(c1O)Cc1cc(C(C)(C)CC(C)(C)C)cc(c1O)C2
inactive: ACHN > 100 µM | CCRF-CEM > 100 µM | COLO 205 > 100 µM | HOP-62 > 100 µM | HOP-92 > 100 µM | K562 > 100 µM | MOLT-4 > 100 µM | NCI-H460 > 100 µM | OVCAR-5 > 100 µM | SF-539 > 100 µM | SK-MEL-5 > 100 µM | SNB-19 > 100 µM | U-251 > 100 µM | UACC-257 > 100 µM | UO-31 > 100 µM
